Measured values reported in patent publication US20250255867A1 (Kadmon Corporation, LLC, priority 2022, published 2025).
Where two headings read alike, the source gives them in different places.

Assays:
[1] = Example 1: plasma pharmacokinetics (Cmax, Tmax, AUC0-6 hr) of belumosudil and metabolites; format: in vivo, human; conditions: for Tmax: human, oral, read-out: Time of the Maximum Observed Plasma Concentration (Tmax), Median (Full Range); for Maximum Observed Plasma Concentration (Cmax), Geometric Mean (Geometric Coefficient of Variation) / Tmax: plasma
Protocol: Cmax was the maximum observed plasma concentration, obtained by a non-compartmental analysis. […] Timeframe: Cycles 1 and 2: pre-dose (0 hour), 1, 2, 3, 4, 5, and 6 hours post-dose on Day 1. […] Here, ‘number analyzed’=participants with available data for each specified category.
Tmax was defined as time to reach maximum observed plasma concentration, obtained by a non-compartmental analysis. […] Timeframe: Cycles 1 and 2: pre-dose (0 hour), 1, 2, 3, 4, 5, and 6 hours post-dose on Day 1. Analysis was performed on PK population. Here, ‘number analyzed’=participants with available data for each specified category.
AUC0-6 hr was defined as area under the plasma concentration versus time curve from time 0 to 6 hours post-dose, obtained by a non-compartmental analysis from the concentration-time data. […] Timeframe: Cycles 1 and 2: pre-dose (0 hour), 1, 2, 3, 4, 5, and 6 hours post-dose on Day 1. Analysis was performed on PK population. Here, ‘number analyzed’=participants with available data for each specified category.

[2] = Example 2: safety (AE, SAE, relative dose intensity); format: in vivo
Protocol: All responses were assessed by the study site investigators.

[3] = Cohort 1: Belumosudil 200 mg QD, Cycle 1 Day 1
[4] = Cohort 1: Belumosudil 200 mg QD, Cycle 2 Day 1
[5] = Cohort 2: Belumosudil 200 mg BID, Cycle 1 Day 1
[6] = Cohort 2: Belumosudil 200 mg BID, Cycle 2 Day 1
[7] = Cohort 3: Belumosudil 400 mg QD, Cycle 1 Day 1
[8] = Cohort 3: Belumosudil 400 mg QD, Cycle 2 Day 1

SMILES: CC(C)NC(=O)COc1cccc(-c2nc(Nc3ccc4[nH]ncc4c3)c3ccccc3n2)c1 [Belumosudil, 2-{3-[4-(1H-indazol-5-ylamino)-2-quinazolinyl]phenoxy}-N-(propan-2-yl) acetamide]
- Area Under the Plasma Concentration Versus Time Curve From Time 0 to 6 Hours Post-dose (AUC0-6 hr), Geometric Mean (Geometric Coefficient of Variation) [1, 3]: 8350 hours*nanograms per milliliter
- Maximum Observed Plasma Concentration (Cmax), Geometric Mean (Geometric Coefficient of Variation) [1, 3]: 2500 (60.1%) nanograms per milliliter
- Area Under the Plasma Concentration Versus Time Curve From Time 0 to 6 Hours Post-dose (AUC0-6 hr), Geometric Mean (Geometric Coefficient of Variation) [1, 4]: 7090 (95.9%) hours*nanograms per milliliter
- Maximum Observed Plasma Concentration (Cmax), Geometric Mean (Geometric Coefficient of Variation) [1, 4]: 2020 (101%) nanograms per milliliter
- Area Under the Plasma Concentration Versus Time Curve From Time 0 to 6 Hours Post-dose (AUC0-6 hr), Geometric Mean (Geometric Coefficient of Variation) [1, 5]: 4960 hours*nanograms per milliliter
- Maximum Observed Plasma Concentration (Cmax), Geometric Mean (Geometric Coefficient of Variation) [1, 5]: 1400 (98.5%) nanograms per milliliter
- Area Under the Plasma Concentration Versus Time Curve From Time 0 to 6 Hours Post-dose (AUC0-6 hr), Geometric Mean (Geometric Coefficient of Variation) [1, 6]: 7190 (115%) hours*nanograms per milliliter
- Maximum Observed Plasma Concentration (Cmax), Geometric Mean (Geometric Coefficient of Variation) [1, 6]: 1890 (120%) nanograms per milliliter
- Area Under the Plasma Concentration Versus Time Curve From Time 0 to 6 Hours Post-dose (AUC0-6 hr), Geometric Mean (Geometric Coefficient of Variation) [1, 7]: 11500 hours*nanograms per milliliter
- Maximum Observed Plasma Concentration (Cmax), Geometric Mean (Geometric Coefficient of Variation) [1, 7]: 2960 (69.7%) nanograms per milliliter
- Area Under the Plasma Concentration Versus Time Curve From Time 0 to 6 Hours Post-dose (AUC0-6 hr), Geometric Mean (Geometric Coefficient of Variation) [1, 8]: 12000 hours*nanograms per milliliter
- Maximum Observed Plasma Concentration (Cmax), Geometric Mean (Geometric Coefficient of Variation) [1, 8]: 3270 (63.0%) nanograms per milliliter
- Tmax ([1]; 200 mg, Cohort 1: Belumosudil 200 mg QD, Cycle 1 Day 1): 2.12 h
- Tmax ([1]; 200 mg, Cohort 1: Belumosudil 200 mg QD, Cycle 2 Day 1): 2.53 h
- Tmax ([1]; 200 mg, Cohort 2: Belumosudil 200 mg BID, Cycle 1 Day 1): 3.43 h
- Tmax ([1]; 200 mg, Cohort 2: Belumosudil 200 mg BID, Cycle 2 Day 1): 2.47 h
- Tmax ([1]; 400 mg, Cohort 3: Belumosudil 400 mg QD, Cycle 1 Day 1): 3.03 h
- Tmax ([1]; 400 mg, Cohort 3: Belumosudil 400 mg QD, Cycle 2 Day 1): 2.66 h
- ALT increased ([2]; 200 mg daily (n = 66)): 4 (6) n (%)
- AST increased ([2]; 200 mg daily (n = 66)): 5 (8) n (%)
- Any AE ([2]; 200 mg daily (n = 66)): 65 (99) n (%)
- Bilirubin conjugated increased ([2]; 200 mg daily (n = 66)): 1 (2) n (%)
- Blood alkaline phosphatase increased ([2]; 200 mg daily (n = 66)): 4 (6) n (%)
- Cough, all grades ([2]; 200 mg daily (n = 66)): 20 (30) n (%)
- Deaths ([2]; 200 mg daily (n = 66)): 8 (12) n (%)
- Diarrhea, all grades ([2]; 200 mg daily (n = 66)): 23 (35) n (%)
- Drug-related AEs ([2]; 200 mg daily (n = 66)): 49 (74) n (%)
- Drug-related SAEs ([2]; 200 mg daily (n = 66)): 5 (8) n (%)
- Dyspnea, all grades ([2]; 200 mg daily (n = 66)): 21 (32) n (%)
- Fatigue, all grades ([2]; 200 mg daily (n = 66)): 30 (46) n (%)
- GGT increased ([2]; 200 mg daily (n = 66)): 6 (9) n (%)
- Grade ≥3 AEs ([2]; 200 mg daily (n = 66)): 37 (56) n (%)
- Headache, all grades ([2]; 200 mg daily (n = 66)): 13 (20) n (%)
- Hyperglycemia, Grade ≥3 ([2]; 200 mg daily (n = 66)): 3 (5) n (%)
- Hypertension, Grade ≥3 ([2]; 200 mg daily (n = 66)): 4 (6) n (%)
- Hypoalbuminemia ([2]; 200 mg daily (n = 66)): 2 (3) n (%)
- LFT increased ([2]; 200 mg daily (n = 66)): 1 (2) n (%)
- Liver-related AEs ([2]; 200 mg daily (n = 66)): 12 (18) n (%)
- Muscle spasms, all grades ([2]; 200 mg daily (n = 66)): 13 (20) n (%)
- Nausea, all grades ([2]; 200 mg daily (n = 66)): 23 (35) n (%)
- Peripheral edema, all grades ([2]; 200 mg daily (n = 66)): 17 (26) n (%)
- Pneumonia, Grade ≥3 ([2]; 200 mg daily (n = 66)): 6 (9) n (%)
- SAEs ([2]; 200 mg daily (n = 66)): 27 (41) n (%)
- Transaminases increased ([2]; 200 mg daily (n = 66)): 1 (2) n (%)
- Upper respiratory tract infection, all grades ([2]; 200 mg daily (n = 66)): 17 (26) n (%)
- Vomiting, all grades ([2]; 200 mg daily (n = 66)): 18 (27) n (%)
- ALT increased ([2]; 200 mg twice daily (n = 66)): 7 (11) n (%)
- AST increased ([2]; 200 mg twice daily (n = 66)): 8 (12) n (%)
- Any AE ([2]; 200 mg twice daily (n = 66)): 66 (100) n (%)
- Bilirubin conjugated increased ([2]; 200 mg twice daily (n = 66)): 0 n (%)
- Blood alkaline phosphatase increased ([2]; 200 mg twice daily (n = 66)): 6 (9) n (%)
- Cough, all grades ([2]; 200 mg twice daily (n = 66)): 17 (26) n (%)
- Deaths ([2]; 200 mg twice daily (n = 66)): 6 (9) n (%)
- Diarrhea, all grades ([2]; 200 mg twice daily (n = 66)): 21 (32) n (%)
- Drug-related AEs ([2]; 200 mg twice daily (n = 66)): 40 (61) n (%)
- Drug-related SAEs ([2]; 200 mg twice daily (n = 66)): 2 (3) n (%)
- Dyspnea, all grades ([2]; 200 mg twice daily (n = 66)): 12 (18) n (%)
- Fatigue, all grades ([2]; 200 mg twice daily (n = 66)): 20 (30) n (%)
- GGT increased ([2]; 200 mg twice daily (n = 66)): 10 (15) n (%)
- Grade ≥3 AEs ([2]; 200 mg twice daily (n = 66)): 34 (52) n (%)
- Headache, all grades ([2]; 200 mg twice daily (n = 66)): 18 (27) n (%)
- Hyperglycemia, Grade ≥3 ([2]; 200 mg twice daily (n = 66)): 3 (5) n (%)
- Hypertension, Grade ≥3 ([2]; 200 mg twice daily (n = 66)): 4 (6) n (%)
- Hypoalbuminemia ([2]; 200 mg twice daily (n = 66)): 2 (3) n (%)
- LFT increased ([2]; 200 mg twice daily (n = 66)): 0 n (%)
- Liver-related AEs ([2]; 200 mg twice daily (n = 66)): 19 (29) n (%)
